Reference: patent US20250092039A1, “GLUTARIMIDE-CONTAINING PAN-KRAS-MUTANT DEGRADER COMPOUNDS AND USES THEREOF” (Tiger Biotherapeutics Inc., priority 2022, published 2025)

Assays:
KRAS G12V = KRAS G12V (Homo sapiens (Human), UniProt P01116, G12V); test: KRAS G12V degradation in SW620 cells (Western blot, DC50); type: cell-based; conditions: 24 hours
Summary of the method: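 KRAS levels were quantified by fluorescent Western blot as percent of the DMSO control after 24 h of compound exposure at 37° C in homozygous KRAS G12V SW620 cells. A four-parameter variable-slope fit of the dose-response gave the half-maximal degradation concentration.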

KRAS-G12V/RAF1 = KRAS-G12V/RAF1 (Homo sapiens (Human), UniProt P01116, G12V); test: KRAS/RAF1 binding inhibition assay (AlphaScreen)
Chain of KRAS-G12V/RAF1 (P01116-2 other isoform, or with tags, fused parts or gaps G12V): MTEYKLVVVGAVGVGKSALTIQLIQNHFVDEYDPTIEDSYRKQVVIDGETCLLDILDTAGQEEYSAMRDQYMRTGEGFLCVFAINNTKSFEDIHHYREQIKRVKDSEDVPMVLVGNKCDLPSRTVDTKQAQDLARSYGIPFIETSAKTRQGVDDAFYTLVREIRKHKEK
Summary of the method: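 IC50 comes from variable-slope nonlinear fits of % inhibition (relative to DMSO) against inhibitor concentration. The AlphaScreen signal tracks the interaction of GppNHp-bound KRAS G12V with the RAF1 RBD after 60 min at 4° C with compound in 2% DMSO final.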

SW620 cells = test: 3D cell growth inhibition of SW620 cells carrying endogenous KRAS G12V mutation (CellTiter-Glo 3D, GI50); type: cell-based; conditions: Homo sapiens, SW-620, 144 h; SW620 cells, 6 days; read-out: SW620 3D cell growth GI50
Summary of the method: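 […], compound exposure lasted 6 days at 37° C, added the day after plating from DMSO stocks over a concentration range. Cells: SW620, KRAS G12V, 3D culture.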

Chain of KRAS G12V (P01116-2 other isoform, or with tags, fused parts or gaps G12V): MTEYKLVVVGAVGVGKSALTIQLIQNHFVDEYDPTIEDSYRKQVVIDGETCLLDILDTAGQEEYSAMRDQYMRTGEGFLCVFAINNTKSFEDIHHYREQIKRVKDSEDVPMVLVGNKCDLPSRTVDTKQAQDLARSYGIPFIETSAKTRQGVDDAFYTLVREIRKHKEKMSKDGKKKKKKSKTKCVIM

| DC50 (KRAS G12V) [nM] | IC50 (KRAS-G12V/RAF1) [nM] | GI50 (SW620 cells) [nM] | SMILES |
| --- | --- | --- | --- |
| < 1 | < 20 | < 10 | CCc1c(F)ccc2cc(O)cc(-c3ncc4c(N5CCC[C@@](C)(O)C5)nc(OCC5(CN6CCC7(CC6)CN(C6CCN(c8ccc9c(c8)CN(C8CCC(=O)NC8=O)C9=O)CC6)C7)CC5)nc4c3F)c12 (stereo partly drawn) [Compound 155, 3-(5-(4-(7-((1-(((7-(8-ethyl-7-fluoro-3-hydroxynaphthalen-1-yl)-8-fluoro-4-((R)-3-hydroxy-3-methylpiperidin-1-yl)pyrido[4,3-d]pyrimidin-2-yl)oxy)methyl)cyclopropyl)methyl)-2,7-diazaspiro[3.5]nonan-2-yl)piperidin-1-yl)-1-oxoisoindolin-2-yl)piperidine-2,6-dione] |
| < 1 | < 20 | < 10 | CCc1c(F)ccc2cc(O)cc(-c3ncc4c(N5CCC[C@@](C)(O)C5)nc(OCC5(CN6CCC7(CC6)CN(C6CN(c8ccc9c(c8)CN(C8CCC(=O)NC8=O)C9=O)C6)C7)CC5)nc4c3F)c12 (stereo partly drawn) [Compound 163, 3-[5-[3-[7-[[1-[[7-(8-ethyl-7-fluoro-3-hydroxy-1-naphthyl)-8-fluoro-4-[(3R)-3-hydroxy-3-methyl-1-piperidyl]pyrido[4,3-d]pyrimidin-2-yl]oxymethyl]cyclopropyl]methyl]-2,7-diazaspiro[3.5]nonan-2-yl]azetidin-1-yl]-1-oxo-isoindolin-2-yl]piperidine-2,6-dione] |
| 1 to 10 | < 20 | 10 to 100 | CCc1c(F)ccc2cc(O)cc(-c3ncc4c(N5CCC[C@@](C)(O)C5)nc(OCC5(CN6CC(N7CC(CN8CCN(c9ccc%10c(c9)CN([C@@H]9CCC(=O)NC9=O)C%10=O)CC8)C7)C6)CC5)nc4c3F)c12 [Compound 9, (R)-3-(5-(4-((1′-((1-(((7-(8-ethyl-7-fluoro-3-hydroxynaphthalen-1-yl)-8-fluoro-4-((R)-3-hydroxy-3-methylpiperidin-1-yl)pyrido[4,3-d]pyrimidin-2-yl)oxy)methyl)cyclopropyl)methyl)-[1,3′-biazetidin]-3-yl)methyl)piperazin-1-yl)-1-oxoisoindolin-2-yl)piperidine-2,6-dione] |
| 1 to 10 | 20 to 200 | < 10 | CCc1c(F)ccc2cc(O)cc(-c3ncc4c(N5CCC[C@@](C)(O)C5)nc(OCC5(CN6CC(N7CCN(c8ccc9c(c8)CN([C@H]8CCC(=O)NC8=O)C9=O)CC7)C6)CC5)nc4c3F)c12 [Compound 130, (S)-3-(5-(4-(1-((1-(((7-(8-ethyl-7-fluoro-3-hydroxynaphthalen-1-yl)-8-fluoro-4-((R)-3-hydroxy-3-methylpiperidin-1-yl)pyrido[4,3-d]pyrimidin-2-yl)oxy)methyl)cyclopropyl)methyl)azetidin-3-yl)piperazin-1-yl)-1-oxoisoindolin-2-yl)piperidine-2,6-dione] |
| > 100 | > 200 | > 100 | CCc1c(F)ccc2cc(O)cc(-c3ncc4c(N5CCC(O)CC5)nc(OCC5(CN6CCC7(CC6)CC(CN6CCN(c8ccc9c(c8)CN([C@H]8CCC(=O)NC8=O)C9=O)CC6)C7)CC5)nc4c3F)c12 [Compound 114, (S)-3-(5-(4-((7-((1-(((7-(8-ethyl-7-fluoro-3-hydroxynaphthalen-1-yl)-8-fluoro-4-(4-hydroxypiperidin-1-yl)pyrido[4,3-d]pyrimidin-2-yl)oxy)methyl)cyclopropyl)methyl)-7-azaspiro[3.5]nonan-2-yl)methyl)piperazin-1-yl)-1-oxoisoindolin-2-yl)piperidine-2,6-dione] |
| > 100 | > 200 | > 100 | CCc1c(F)ccc2cc(N)cc(-c3ncc4c(N5CCC[C@@](C)(O)C5)nc(OCC5(CN6CCC(CN7CCN(c8ccc9c(c8)CN([C@H]8CCC(=O)NC8=O)C9=O)CC7)CC6)CC5)nc4c3F)c12 [Compound 89, (S)-3-(5-(4-((1-((1-(((7-(3-amino-8-ethyl-7-fluoronaphthalen-1-yl)-8-fluoro-4-((R)-3-hydroxy-3-methylpiperidin-1-yl)pyrido[4,3-d]pyrimidin-2-yl)oxy)methyl)cyclopropyl)methyl)piperidin-4-yl)methyl)piperazin-1-yl)-1-oxoisoindolin-2-yl)piperidine-2,6-dione] |
| 1 to 10 | 20 to 200 | < 10 | CCc1c(F)ccc2cc(O)cc(-c3ncc4c(N5CCC[C@@](C)(O)C5)nc(OCC5(CN6CC7(CCC(CN8CCN(c9ccc%10c(c9)CN([C@H]9CCC(=O)NC9=O)C%10=O)CC8)CC7)C6)CC5)nc4c3F)c12 [Compound 126, (3S)-3-[5-[4-[[2-[[1-[[7-(8-ethyl-7-fluoro-3-hydroxy-1-naphthyl)-8-fluoro-4-[(3R)-3-hydroxy-3-methyl-1-piperidyl]pyrido[4,3-d]pyrimidin-2-yl]oxymethyl]cyclopropyl]methyl]-2-azaspiro[3.5]nonan-7-yl]methyl]piperazin-1-yl]-1-oxo-isoindolin-2-yl]piperidine-2,6-dione] |
| 1 to 10 | < 20 | 10 to 100 | CCc1c(F)ccc2cc(O)cc(-c3ncc4c(N5CCC[C@@](C)(O)C5)nc(OCC5(CN6CCC(O)(CN7CCN(c8ccc9c(c8)CN([C@H]8CCC(=O)NC8=O)C9=O)CC7)CC6)CC5)nc4c3F)c12 [Compound 13, (S)-3-(5-(4-((1-((1-(((7-(8-ethyl-7-fluoro-3-hydroxynaphthalen-1-yl)-8-fluoro-4-((R)-3-hydroxy-3-methylpiperidin-1-yl)pyrido[4,3-d]pyrimidin-2-yl)oxy)methyl)cyclopropyl)methyl)-4-hydroxypiperidin-4-yl)methyl)piperazin-1-yl)-1-oxoisoindolin-2-yl)piperidine-2,6-dione] |
| > 100 | 20 to 200 | 10 to 100 | CCc1c(F)ccc2cc(O)cc(-c3ncc4c(N5CCC[C@@](C)(O)C5)nc(OCC5(CN6CCN(C7CCC8(CC7)CCN(c7ccc9c(c7)CN(C7CCC(=O)NC7=O)C9=O)CC8)CC6)CC5)nc4c3F)c12 (stereo partly drawn) [Compound 171, 3-(5-(9-(4-((1-(((7-(8-ethyl-7-fluoro-3-hydroxynaphthalen-1-yl)-8-fluoro-4-((R)-3-hydroxy-3-methylpiperidin-1-yl)pyrido[4,3-d]pyrimidin-2-yl)oxy)methyl)cyclopropyl)methyl)piperazin-1-yl)-3-azaspiro[5.5]undecan-3-yl)-1-oxoisoindolin-2-yl)piperidine-2,6-dione] |
| < 1 | < 20 | < 10 | CCc1c(F)ccc2cc(O)cc(-c3ncc4c(N5CCC[C@@](C)(O)C5)nc(OCC5(CN6CC(N7CC8(CCN(c9ccc%10c(c9)CN(C9CCC(=O)NC9=O)C%10=O)CC8)C7)C6)CC5)nc4c3F)c12 (stereo partly drawn) [Compound 144, 3-(5-(2-(1-((1-(((7-(8-ethyl-7-fluoro-3-hydroxynaphthalen-1-yl)-8-fluoro-4-((R)-3-hydroxy-3-methylpiperidin-1-yl)pyrido[4,3-d]pyrimidin-2-yl)oxy)methyl)cyclopropyl)methyl)azetidin-3-yl)-2,7-diazaspiro[3.5]nonan-7-yl)-1-oxoisoindolin-2-yl)piperidine-2,6-dione] |
| > 100 | > 200 | 10 to 100 | CCc1c(F)ccc2cc(N)cc(-c3ncc4c(N5CCC[C@@](C)(O)C5)nc(OCC5(CN6CCC7(CC6)CC(CN6CCN(c8ccc9c(c8)CN([C@H]8CCC(=O)NC8=O)C9=O)CC6)C7)CC5)nc4c3F)c12 [Compound 88, (S)-3-(5-(4-((7-((1-(((7-(3-amino-8-ethyl-7-fluoronaphthalen-1-yl)-8-fluoro-4-((R)-3-hydroxy-3-methylpiperidin-1-yl)pyrido[4,3-d]pyrimidin-2-yl)oxy)methyl)cyclopropyl)methyl)-7-azaspiro[3.5]nonan-2-yl)methyl)piperazin-1-yl)-1-oxoisoindolin-2-yl)piperidine-2,6-dione] |
| 1 to 10 | < 20 | < 10 | CCc1c(F)ccc2cc(O)cc(-c3ncc4c(N5CCC[C@@](C)(O)C5)nc(OCC5(CN6CC7(CCN(C8CN(c9ccc%10c(c9)CN(C9CCC(=O)NC9=O)C%10=O)C8)CC7)C6)CC5)nc4c3F)c12 (stereo partly drawn) [Compound 172, 3-(5-(3-(2-((1-(((7-(8-ethyl-7-fluoro-3-hydroxynaphthalen-1-yl)-8-fluoro-4-((R)-3-hydroxy-3-methylpiperidin-1-yl)pyrido[4,3-d]pyrimidin-2-yl)oxy)methyl)cyclopropyl)methyl)-2,7-diazaspiro[3.5]nonan-7-yl)azetidin-1-yl)-1-oxoisoindolin-2-yl)piperidine-2,6-dione] |
| 1 to 10 | < 20 | < 10 | CCc1c(F)ccc2cc(O)cc(-c3ncc4c(N5CCC[C@@](C)(O)C5)nc(OCC5(CN6CCC(N7CC8(CCN(c9cc(F)c(C%10CCC(=O)NC%10=O)c(F)c9)CC8)C7)CC6)CC5)nc4c3F)c12 (stereo partly drawn) [Compound 57, 3-(4-(2-(1-((1-(((7-(8-ethyl-7-fluoro-3-hydroxynaphthalen-1-yl)-8-fluoro-4-((R)-3-hydroxy-3-methylpiperidin-1-yl)pyrido[4,3-d]pyrimidin-2-yl)oxy)methyl)cyclopropyl)methyl)piperidin-4-yl)-2,7-diazaspiro[3.5]nonan-7-yl)-2,6-difluorophenyl)piperidine-2,6-dione] |
